The values that follow are results of earlier work, collected in patent US20160089381A1, “STABILITY OF PROGESTOGEN FORMULATIONS” (Novo Nordisk HealthCare AG, priority 2003, published 2016).

This data set relates to endometrium. The conditions noted are these: dose equivalent to 1 mg NETA.

In the case of `CC(=O)O[C@]1(C(C)=O)CC[C@H]2[C@@H]3C=C(Cl)C4=CC(=O)[C@@H]5C[C@@H]5[C@]4(C)[C@H]3CC[C@@]21C` [cyproterone acetate], the Endometrium transformation dosage is given as 1 mg.
Regarding `CC(=O)O[C@]1(C(C)=O)CC[C@H]2[C@@H]3C[C@H](C)C4=CC(=O)CC[C@]4(C)[C@H]3CC[C@@]21C` [medroxyprogestogen acetate], the Endometrium transformation dosage is listed as 5 mg.
